The conditions of series [1]: for Triple point temperature / Glass transition temperature: DSC; for Normal melting temperature: visual observation.
A short description of series [2]: Molar enthalpy of transition or fusion. Particulars: DSC.

± gives the expanded uncertainty stated by the source.

As for `CCCCn1cc[n+](C)c1.F[P-](F)(F)(F)(F)F` [1-butyl-3-methylimidazolium hexafluorophosphate], the Triple point temperature in series [1] (Crystal 1) turned out to be 286.46 ± 1.2 K. Also, in series [1], the Glass transition temperature is -74.28 ± 1.2 °C. In addition, in series [2] (Crystal 1), the “Molar enthalpy of transition or fusion” value was found to be 2.73 ± 0.0837 kcal/mol.

Turning to `CCCCn1cc[n+](C)c1.F[B-](F)(F)F` [1-butyl-3-methylimidazolium tetrafluoroborate], the Glass transition temperature in series [1] is -83.90 ± 8 °C.

As to `CCCCn1cc[n+](C)c1.O=S(=O)([O-])C(F)(F)F` [1-butyl-3-methylimidazolium trifluoromethanesulfonate], the Triple point temperature in series [1] (Crystal) is reported as 291.46 ± 1.2 K. In series [2] (Crystal), the “Molar enthalpy of transition or fusion” value turned out to be 4.82 ± 0.141 kcal/mol.

As to `CCCCCCCCn1cc[n+](C)c1.O=S(=O)([O-])C(F)(F)F` [1-octyl-3-methylimidazolium trifluoromethanesulfonate], the Triple point temperature in series [1] (Crystal) is given as 283.51 ± 1.2 K. In addition, the “Molar enthalpy of transition or fusion” value in series [2] (Crystal 1) was 5.76 ± 0.165 kcal/mol.

For the molecule `NNC(=O)c1ccncc1` [isonicotinic acid hydrazide], the Normal melting temperature in series [1] (Crystal) was 172.69 ± 2 °C.

Turning to `NC(=O)c1cnccn1` [pyrazinecarboxamide], the Normal melting temperature in series [1] (Crystal) was 188.27 ± 0.16 °C.

Values taken from the NIST ThermoML archive (doi:10.1021/acs.jced.6b00201).
